{
  "source": "patent US9540384B2",
  "about": "“Pyrrolidino heterocycles” (Hoffmann-La Roche Inc., priority 2012, dated 2017)",
  "note": "Where a name gives a salt, the structure may show the parent alone.",
  "data": [
    {"target": "human PDE10A full length (Homo sapiens (Human), UniProt Q9Y233)", "sequence (Q9Y233 other isoform, or with tags, fused parts or gaps)": "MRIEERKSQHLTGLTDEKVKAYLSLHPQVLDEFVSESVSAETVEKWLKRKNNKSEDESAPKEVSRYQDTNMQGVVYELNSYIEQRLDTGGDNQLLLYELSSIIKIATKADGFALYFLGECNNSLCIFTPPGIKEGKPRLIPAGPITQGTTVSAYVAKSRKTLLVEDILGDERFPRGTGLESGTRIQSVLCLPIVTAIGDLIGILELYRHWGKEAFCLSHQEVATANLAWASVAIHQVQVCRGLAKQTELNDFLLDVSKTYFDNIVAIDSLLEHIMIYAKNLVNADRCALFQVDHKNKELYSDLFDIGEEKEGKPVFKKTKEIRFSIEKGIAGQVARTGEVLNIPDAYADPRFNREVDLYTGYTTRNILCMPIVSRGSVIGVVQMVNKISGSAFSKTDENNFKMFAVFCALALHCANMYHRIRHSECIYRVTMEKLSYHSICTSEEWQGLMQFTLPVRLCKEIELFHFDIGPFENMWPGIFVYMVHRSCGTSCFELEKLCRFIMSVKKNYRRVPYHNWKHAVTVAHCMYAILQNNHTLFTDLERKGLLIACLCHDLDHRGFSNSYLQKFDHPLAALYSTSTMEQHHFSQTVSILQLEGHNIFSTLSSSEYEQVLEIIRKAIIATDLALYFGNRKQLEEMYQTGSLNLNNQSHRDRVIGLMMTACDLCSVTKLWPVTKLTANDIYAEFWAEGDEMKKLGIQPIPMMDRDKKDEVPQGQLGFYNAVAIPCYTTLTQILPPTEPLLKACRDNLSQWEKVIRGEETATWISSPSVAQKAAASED", "assay": "human PDE10A full length Scintillation Proximity Assay (SPA)", "type": "biochemical", "settings": "PDE10A enzyme, 50 nM cGMP + 50 nM [3H]-cGMP, 20 minutes at room temperature", "protocol": "The following test was carried out in order to determine the activity of the compounds of the present invention. PDE10 activity of the compounds of the present invention was determined using a Scintillation Proximity Assay (SPA)-based method similar to the one previously described (Fawcett, L. et al., Proc Natl Acad Sci USA (2000) 97(7):3702-3707).\nThe human PDE10A full length assay was performed in 96-well micro titer plates. The reaction mixture of 50 μl contained 20 mM HEPES pH=7.5/10 mM MgCl2/0.05 mg/ml BSA (Sigma cat. #A-7906), 50 nM cGMP (Sigma, cat. #G6129) and 50 nM [3H]-cGMP (GE Healthcare, cat. #TRK392 S.A. 13.2 Ci/mmol), 3.75 ng/well PDE10A enzyme (Enzo Life Science, Lausen, Switzerland cat #SE-534) with or without a specific test compound. A range of concentrations of the potential inhibitor was used to generate data for calculating the concentration of inhibitor resulting in 50% of the effect (e.g. IC50, the concentration of the competitor inhibiting PDE10A activity by 50%). Non-specific activity was tested without the enzyme. The reaction was initiated by the addition of the substrate solution (cGMP and [3H]-cGMP) and allowed to progress for 20 minutes at room temperature. The reaction was terminated by adding 25 μl of YSi-SPA scintillation beads (GE Healthcare, cat. #RPNQ0150) in 18 mM zinc sulphate solution (stop reagent). After 1 h under shaking, the plate was centrifuged one minute at 170 g to allow beads to settle. Afterwards, radioactive counts were measured on a Perkin Elmer TopCount Scintillation plate reader.", "units": {"IC50": "µM"}, "values": [
      {"smiles": "CC1CCC(C)N1c1cccc(CCc2nc(N(C)C)c3ccccc3n2)n1", "note": "(stereo not shown) [Example 30, 2-(2-(6-(2,5-Dimethylpyrrolidin-1-yl)pyridin-2-yl)ethyl)-N,N-dimethylquinazolin-4-amine]", "IC50": 2.3},
      {"smiles": "c1cncc(-c2nc(OCc3cccc(N4CCCC4)n3)cc(N3CCOCC3)n2)c1", "note": "[Example 24, 4-(2-(Pyridin-3-yl)-6-((6-(pyrrolidin-1-yl)pyridin-2-yl)methoxy)-pyrimidin-4-yl)morpholine]", "IC50": 1.63},
      {"smiles": "CC1CCCN1c1cccc(CCc2nc(N(C)C)c3cc(Cl)ccc3n2)n1", "note": "(stereo not shown) [Example 38, 6-Chloro-N,N-dimethyl-2-(2-(6-(2-methylpyrrolidin-1-yl)pyridin-2-yl)ethyl)quinazolin-4-amine]", "IC50": 0.081},
      {"smiles": "Cc1cn2nc(OCc3cccc(N4CCCC4)n3)ccc2n1", "note": "[Example 54, 2-Methyl-6-((6-(pyrrolidin-1-yl)pyridin-2-yl)methoxy)imidazo[1,2-b]pyridazine]", "IC50": 0.26},
      {"smiles": "CN(C)c1nc(CCc2cccc(N(C)CCO)n2)nc2ccc(Cl)cc12", "note": "[Example 40, 2-((6-(2-(6-Chloro-4-(dimethylamino)quinazolin-2-yl)ethyl)pyridin-2-yl)(methyl)amino)ethanol]", "IC50": 2.16},
      {"smiles": "CN(C)c1nc(CCc2cccc(N3CCC(CO)C3)n2)nc2ccccc12", "note": "(stereo not shown) [Example 34, (1-(6-(2-(4-(Dimethylamino)quinazolin-2-yl)ethyl)pyridin-2-yl)pyrrolidin-3-yl)methanol]", "IC50": 1.63},
      {"smiles": "c1cc(COc2cc(N3CCOCC3)nc(-c3ccn[nH]3)n2)nc(N2CCCC2)c1", "note": "[Example 23, 4-[2-(2H-Pyrazol-3-yl)-6-(6-pyrrolidin-1-yl-pyridin-2-ylmethoxy)-pyrimidin-4-yl]-morpholine]", "IC50": 1.08},
      {"smiles": "Clc1ccc2nc(CCc3cccc(N4CCCC4)n3)nc(N3CCOCC3)c2c1", "note": "[Example 20, 4-(6-Chloro-2-(2-(6-(pyrrolidin-1-yl)pyridin-2-yl)ethyl)quinazolin-4-yl)morpholine]", "IC50": 0.0033},
      {"smiles": "Cc1nn2ccc(OCc3cccc(N4CCCC4)n3)nc2c1C", "note": "[Example 53, 2,3-Dimethyl-5-((6-(pyrrolidin-1-yl)pyridin-2-yl)methoxy)pyrazolo[1,5-a]pyrimidine]", "IC50": 0.069},
      {"smiles": "CC1CCCN1c1cccc(/C=C/c2nc(N(C)C)c3cc(Cl)ccc3n2)n1", "note": "(stereo not shown) [Example 35, (E)-6-Chloro-N,N-dimethyl-2-(2-(6-(2-methylpyrrolidin-1-yl)pyridin-2-yl)vinyl)quinazolin-4-amine]", "IC50": 0.027},
      {"smiles": "c1cc(COc2nc(N3CCOCC3)c3ccccc3n2)nc(N2CCCC2)c1", "note": "[Example 16, 4-(2-((6-(Pyrrolidin-1-yl)pyridin-2-yl)methoxy)quinazolin-4-yl)morpholine]", "IC50": 0.05},
      {"smiles": "CN(C)c1cccc(CCc2nc(N(C)C)c3cc(Cl)ccc3n2)n1", "note": "[Example 42, 6-Chloro-2-(2-(6-(dimethylamino)pyridin-2-yl)ethyl)-N,N-dimethyl-quinazolin-4-amine]", "IC50": 1.68},
      {"smiles": "Cc1c(C(F)(F)F)nc2ccc(NCc3cccc(N4CCCC4)n3)nn12", "note": "[Example 57, 3-Methyl-N-((6-(pyrrolidin-1-yl)pyridin-2-yl)methyl)-2-(trifluoromethyl)imidazo[1,2-b]pyridazin-6-amine]", "IC50": 0.2},
      {"smiles": "Cc1nc2ccccc2nc1/C=C/c1cccc(N2CCCC2)n1", "note": "[Example 10, 2-Methyl-3-[(E)-2-(6-pyrrolidin-1-yl-pyridin-2-yl)-vinyl]-quinoxaline]", "IC50": 0.09},
      {"smiles": "CN(C)c1nc(CCc2cccc(N3CCC(CO)C3)n2)nc2ccc(Cl)cc12", "note": "(stereo not shown) [Example 33, (1-(6-(2-(6-Chloro-4-(dimethylamino)quinazolin-2-yl)ethyl)pyridin-2-yl)pyrrolidin-3-yl)methanol]", "IC50": 0.15},
      {"smiles": "COc1c(C)cnc(/C=C/c2cccc(N3CCOCC3)n2)c1C", "note": "[Example 2, (E)-4-(6-(2-(4-Methoxy-3,5-dimethylpyridin-2-yl)vinyl)pyridin-2-yl)morpholine]", "IC50": 8},
      {"smiles": "Cc1nc2nc(CCc3cccc(N4CCCC4)n3)[nH]c(=O)c2n1C", "note": "[Example 28, 7,8-Dimethyl-2-(2-(6-(pyrrolidin-1-yl)pyridin-2-yl)ethyl)-1H-purin-6(7H)-one]", "IC50": 2.73},
      {"smiles": "Cc1cc(C)n2nc(/C=C/c3cccc(N4CCCC4)n3)nc2n1", "note": "[Example 47, (E)-5,7-Dimethyl-2-(2-(6-(pyrrolidin-1-yl)pyridin-2-yl)vinyl)[1,2,4]triazolo[1,5-a]pyrimidine]", "IC50": 0.031},
      {"smiles": "Cc1cc(C)n2nc(CCc3cncc(N4CCCC4)n3)nc2n1", "note": "[Example 46, 5,7-Dimethyl-2-(2-(6-(pyrrolidin-1-yl)pyrazin-2-yl)ethyl)-[1,2,4]triazolo-[1,5-a]pyrimidine]", "IC50": 0.3},
      {"smiles": "COc1c(Cl)ccc2nc(CCc3cccc(N4CCCC4)n3)[nH]c(=O)c12", "note": "[Example 27, 6-Chloro-5-methoxy-2-(2-(6-(pyrrolidin-1-yl)pyridin-2-yl)ethyl)-quinazolin-4(3H)-one]", "IC50": 0.47},
      {"smiles": "Cn1cc(-c2ccccc2)nc1CCc1cncc(N2CCCN2)n1", "note": "[Example 14, 2-(2-(1-Methyl-4-phenyl-1H-imidazol-2-yl)ethyl)-6-(pyrazolidin-1-yl)pyrazine hydrochloride]", "IC50": 0.12},
      {"smiles": "Cn1ncc2c(N3CCOCC3)nc(OCc3cccc(N4CCCC4)n3)nc21", "note": "[Example 18, 4-(1-Methyl-6-((6-(pyrrolidin-1-yl)pyridin-2-yl)methoxy)-1H-pyrazolo-[3,4-d]pyrimidin-4-yl)morpholine]", "IC50": 0.276},
      {"smiles": "CN(C)c1nc(/C=C/c2cccc(N(C)CCO)n2)nc2ccc(Cl)cc12", "note": "[Example 39, (E)-2-((6-(2-(6-Chloro-4-(dimethylamino)quinazolin-2-yl)vinyl)pyridin-2-yl)(methyl)amino)ethanol]", "IC50": 0.24},
      {"smiles": "COc1c(C)cnc(CCc2cccc(N3CCCC3)n2)c1C", "note": "[Example 5, 4-Methoxy-3,5-dimethyl-2-(2-(6-(pyrrolidin-1-yl)pyridin-2-yl)ethyl)pyridine]", "IC50": 0.61},
      {"smiles": "Cc1nc2ccc(OCc3cccc(N4CCCC4)n3)nn2c1C", "note": "[Example 44, 2,3-Dimethyl-6-((6-(pyrrolidin-1-yl)pyridin-2-yl)methoxy)imidazo[1,2-b]pyridazine]", "IC50": 0.16}
    ]}
  ]
}
